Experimental data reported in ChEMBL document CHEMBL1212797, “Miltefosine efficiently eliminates Leishmania major amastigotes from infected murine dendritic cells without altering their immune functions” (Antimicrob Agents Chemother, 2010).
Activity calls are given as the source filed them. The calls are words filed in the database; no cut-off is given here.

Legend:
[1] = Induction of apoptosis in C57BL/6 mouse dendritic cells assessed as viable cells at 50 uM after 18 hrs using annexin V-propidium iodide and annexin V staining by flow cytometry; format: cell-based; conditions: read-out: Activity
dendritic [2] = experiment: Immunomodulatory effect in Leishmania major Leishmania major infected sC57BL/6 mouse bone marrow dendritic cells assessed as MHC-2 expression at 5 to 50 uM after 18 hrs by flow cytometry; format: functional, cell-based; conditions: C57BL/6
dendritic [3] = experiment: Immunomodulatory effect in uninfected C57BL/6 mouse dendritic cells assessed as IL-10 production after 18 hrs by ELISA; format: functional, cell-based
[4] = Induction of apoptosis in C57BL/6 mouse dendritic cells assessed as viable cells at 50 uM after 72 hrs using annexin V-propidium iodide and annexin V staining by flow cytometry; format: cell-based; conditions: read-out: Activity
[5] = Induction of apoptosis in C57BL/6 mouse dendritic cells assessed as late apoptotic cells at 50 uM after 72 hrs using annexin V-propidium iodide and annexin V staining by flow cytometry; format: cell-based
dendritic [6] = experiment: Immunomodulatory effect in uninfected C57BL/6 mouse dendritic cells assessed as TNF-alpha production after 18 hrs by ELISA; format: functional, cell-based
[7] = Induction of apoptosis in C57BL/6 mouse dendritic cells assessed as early apoptotic cells at 25 uM after 18 hrs using annexin V-propidium iodide and annexin V staining by flow cytometry; format: cell-based
dendritic [8] = experiment: Immunomodulatory effect in Leishmania major uninfected C57BL/6 mouse bone marrow dendritic cells assessed as CD54 expression at 5 to 50 uM after 18 hrs by flow cytometry; format: functional, cell-based
[9] = Induction of apoptosis in C57BL/6 mouse dendritic cells assessed as necrotic cells at 50 uM after 18 hrs using annexin V-propidium iodide and annexin V staining by flow cytometry; format: cell-based
dendritic [10] = experiment: Immunomodulatory effect in Leishmania major uninfected C57BL/6 mouse bone marrow dendritic cells assessed as CD86 expression at 5 to 50 uM after 18 hrs by flow cytometry; format: functional, cell-based
[11] = Cytotoxicity against C57BL/6 mouse immature bone marrow-derived dendritic cells at 5 uM after 72 to 96 hrs by propidium iodide exclusion staining based flow cytometry; format: cell-based
[12] = Induction of apoptosis in C57BL/6 mouse dendritic cells assessed as necrotic cells at 25 uM after 72 hrs using annexin V-propidium iodide and annexin V staining by flow cytometry; format: cell-based
Mus musculus [13] = experiment: Immunomodulatory effect in Leishmania major infected C57BL/6 mouse assessed as levels of CD11c+ and MHC-2+ in dendritic cells at 20 ug administered topically measured after 48 hrs by FACS method; format: functional, organism-based
dendritic [14] = experiment: Immunomodulatory effect in Leishmania major uninfected C57BL/6 mouse bone marrow dendritic cells assessed as expression of MHC-2 at 5 to 50 uM after 18 hrs by flow cytometry; format: functional, cell-based
[15] = Cytotoxicity against C57BL/6 mouse immature bone marrow-derived dendritic cells assessed as reduction of cell survival at >100 uM after 48 hrs by propidium iodide exclusion staining based flow cytometry
Mus musculus [16] = experiment: Immunomodulatory effect in Leishmania major infected C57BL/6 mouse assessed as levels of CD11c+ and MHC-2+ in dendritic cells at 200 ug administered topically measured after 48 hrs by FACS method; format: functional, organism-based
[17] = Induction of apoptosis in C57BL/6 mouse dendritic cells assessed as late apoptotic cells at 25 uM after 72 hrs using annexin V-propidium iodide and annexin V staining by flow cytometry; format: cell-based
dendritic [18] = experiment: Immunomodulatory effect in Leishmania major infected C57BL/6 mouse dendritic cells assessed as IL-10 production after 18 hrs by ELISA; format: functional, cell-based
[19] = Induction of apoptosis in C57BL/6 mouse dendritic cells assessed as necrotic cells at 5 uM after 18 hrs using annexin V-propidium iodide and annexin V staining by flow cytometry; format: cell-based
[20] = Induction of apoptosis in C57BL/6 mouse dendritic cells assessed as early apoptotic cells at 5 uM after 18 hrs using annexin V-propidium iodide and annexin V staining by flow cytometry; format: cell-based
[21] = Induction of apoptosis in C57BL/6 mouse dendritic cells assessed as necrotic cells at 5 uM after 72 hrs using annexin V-propidium iodide and annexin V staining by flow cytometry; format: cell-based
dendritic [22] = experiment: Immunomodulatory effect in uninfected C57BL/6 mouse dendritic cells assessed as IL-12p40 production after 18 hrs by ELISA; format: functional, cell-based
[23] = Induction of apoptosis in C57BL/6 mouse dendritic cells assessed as late apoptotic cells at 50 uM after 18 hrs using annexin V-propidium iodide and annexin V staining by flow cytometry; format: cell-based
dendritic [24] = experiment: Immunomodulatory effect in Leishmania major Leishmania major infected sC57BL/6 mouse bone marrow dendritic cells assessed as CD40 expression at 5 to 50 uM after 18 hrs by flow cytometry; format: functional, cell-based; conditions: C57BL/6
dendritic [25] = experiment: Immunomodulatory effect in Leishmania major uninfected C57BL/6 mouse bone marrow dendritic cells assessed as CD40 expression at 5 to 50 uM after 18 hrs by flow cytometry; format: functional, cell-based
dendritic [26] = experiment: Immunomodulatory effect in Leishmania major infected C57BL/6 mouse dendritic cells assessed as IL-12p40 production after 18 hrs by ELISA; format: functional, cell-based
[27] = Induction of apoptosis in C57BL/6 mouse dendritic cell assessed as early apoptotic cells at 50uM after 18 hrs using annexin V-propidium iodide staining by flow cytometry; format: cell-based
[28] = Induction of apoptosis in C57BL/6 mouse dendritic cells assessed as late apoptotic cells at 25 uM after 18 hrs using annexin V-propidium iodide and annexin V staining by flow cytometry; format: cell-based
[29] = Induction of apoptosis in C57BL/6 mouse dendritic cells assessed as necrotic cells at 25 uM after 18 hrs using annexin V-propidium iodide and annexin V staining by flow cytometry; format: cell-based
dendritic [30] = experiment: Induction of nitric oxide release in Leishmania major amastigotes infected C57BL/6 mouse dendritic cells assessed as nitrite production after 72 hrs; format: functional, cell-based
dendritic [31] = experiment: Immunomodulatory effect in Leishmania major infected C57BL/6 mouse dendritic cells assessed as TNF-alpha production after 18 hrs by ELISA; format: functional, cell-based
[32] = Induction of apoptosis in C57BL/6 mouse dendritic cells assessed as early apoptotic cells at 50 uM after 72 hrs using annexin V-propidium iodide and annexin V staining by flow cytometry; format: cell-based
[33] = Induction of apoptosis in C57BL/6 mouse dendritic cells assessed as early apoptotic cells at 5 uM after 72 hrs using annexin V-propidium iodide and annexin V staining by flow cytometry; format: cell-based
dendritic [34] = experiment: Immunomodulatory effect in Leishmania major Leishmania major infected sC57BL/6 mouse bone marrow dendritic cells assessed as CD86 expression at 5 to 50 uM after 18 hrs by flow cytometry; format: functional, cell-based; conditions: C57BL/6
[35] = Induction of apoptosis in C57BL/6 mouse dendritic cells assessed as late apoptotic cells at 5 uM after 72 hrs using annexin V-propidium iodide and annexin V staining by flow cytometry; format: cell-based
dendritic [36] = experiment: Immunomodulatory effect in Leishmania major infected C57BL/6 mouse dendritic cells assessed as IL-12p70 production after 18 hrs by ELISA; format: functional, cell-based
dendritic [37] = experiment: Immunomodulatory effect in Leishmania major Leishmania major infected sC57BL/6 mouse bone marrow dendritic cells assessed as CD54 expression at 5 to 50 uM after 18 hrs by flow cytometry; format: functional, cell-based; conditions: C57BL/6
[38] = Induction of apoptosis in C57BL/6 mouse dendritic cells assessed as late apoptotic cells at 5 uM after 18 hrs using annexin V-propidium iodide and annexin V staining by flow cytometry; format: cell-based
[39] = Induction of apoptosis in C57BL/6 mouse dendritic cells assessed as […] viable cells at 25 uM after 18 hrs using annexin V-propidium iodide and annexin V staining by flow cytometry; format: cell-based; conditions: read-out: Activity
dendritic [40] = experiment: Effect on antigen specific CD8+ T cells expansion by Leishmania major amastigotes infected C57BL/6 mouse dendritic cells assessed as increase in [3H]thymidine incorporation at 50 uM after 72 hrs; format: functional, cell-based
dendritic [41] = experiment: Effect on antigen specific CD4+ T cells expansion by Leishmania major amastigotes infected C57BL/6 mouse dendritic cells assessed as increase in [3H]thymidine incorporation at 50 uM after 72 hrs; format: functional, cell-based
Homo sapiens = species: Homo sapiens; experiment: Plasma concentration in leishmaniasis patient during last week of 4-week treatment course; format: ADME, organism-based; conditions: in vivo
Leishmania major = experiment: Antileishmenia activity against Leishmania major amastigotes infected in C57BL/6 mouse dendritic cells assessed as decrease in intracellular parasite amastigotes level at 50 uM by light microscopy; format: functional, organism-based
[42] = Induction of apoptosis in C57BL/6 mouse dendritic cells assessed as early apoptotic cells at 50 uM after 18 hrs using annexin V-propidium iodide and annexin V staining by flow cytometry; format: cell-based
[43] = Induction of apoptosis in C57BL/6 mouse dendritic cells assessed as necrotic cells at 50 uM after 72 hrs using annexin V-propidium iodide and annexin V staining by flow cytometry; format: cell-based
dendritic [44] = experiment: Immunomodulatory effect in uninfected C57BL/6 mouse dendritic cells assessed as IL-12p70 production after 18 hrs by ELISA; format: functional, cell-based
[45] = Induction of apoptosis in C57BL/6 mouse dendritic cells assessed as viable cells at 5 uM after 18 hrs using annexin V-propidium iodide and annexin V staining by flow cytometry; format: cell-based; conditions: read-out: Activity
[46] = Induction of apoptosis in C57BL/6 mouse dendritic cells assessed as viable cells at 5 uM after 72 hrs using annexin V-propidium iodide and annexin V staining by flow cytometry; format: cell-based; conditions: read-out: Activity
[47] = Induction of apoptosis in C57BL/6 mouse dendritic cells assessed as viable cells at 25 uM after 72 hrs using annexin V-propidium iodide and annexin V staining by flow cytometry; format: cell-based; conditions: read-out: Activity

Cp (Homo sapiens): 30800 ng/mL
Structure (SMILES): CCCCCCCCCCCCCCCCOP(=O)([O-])OCC[N+](C)(C)C [MILTEFOSINE]
viability at 18 h, 50 µM [1]: 51.7% | Activity (dendritic [2]): inactive | Activity (dendritic [3]): inactive | viability at 72 h, 50 µM [4]: 17.7% | Activity [5]: 54.56% | Activity (dendritic [6]): inactive | Activity [7]: 19.91% | Activity (dendritic [8]): inactive | Activity [9]: 6.6% | Activity (dendritic [10]): inactive | Activity [11]: Active | Activity [12]: 6.2% | Activity (Mus musculus [13]): inactive | Activity (dendritic [14]): inactive | Activity [15]: Toxic | Activity (Mus musculus [16]): inactive | Activity [17]: 22.72% | Activity (dendritic [18]): inactive | Activity [19]: 3.91% | Activity [20]: 20.7% | Activity [21]: 5.16% | Activity (dendritic [22]): inactive | Activity [23]: 18.57% | Activity (dendritic [24]): inactive | Activity (dendritic [25]): inactive | Activity (dendritic [26]): inactive | Activity [27]: 43.18% | Activity [28]: 15.89% | Activity [29]: 5.83% | Activity (dendritic [30]): inactive | Activity (dendritic [31]): inactive | Activity [32]: 21.16% | Activity [33]: 23.15% | Activity (dendritic [34]): inactive | Activity [35]: 35.67% | Activity (dendritic [36]): inactive | Activity (dendritic [37]): inactive | Activity [38]: 11.41% | viability at 18 h, 25 µM [39]: 58.4% | Activity (dendritic [40]): inactive | Activity (dendritic [41]): inactive | inhibition (Leishmania major): Dose-dependent effect | Activity [42]: 23.15% | Activity [43]: 6.56% | Activity (dendritic [44]): inactive | viability at 18 h, 5 µM [45]: 84% | viability at 72 h, 5 µM [46]: 36% | viability at 72 h, 25 µM [47]: 28.9%
